# Experimental data: patent publication US7262218B2, “Forms of pravastatin sodium” (Teva Gyogyszergyar Zartkoruen Mukodo Reszvenytarsasag, priority 1999, dated 2007)
# Key:
# [1] = Solid-form stability on exposure at 100% relative humidity (X-ray diffraction); type: physicochemical; details: one week
# Text: The water uptake at 80% relative humidity after 1 week was up to about 15%. After exposure at 100% relative humidity, all the forms of pravastatin sodium transform to Form C with about […].
# Pravastatin sodium was exposed at 100% relative humidity for one week.
# [2] = system: serum cholesterol levels; details: human subjects with normal hepatic function and moderate body weight; daily dosages of 10 mg or more; cited from earlier work
# [3] = Solid-form stability on storage at 40-80% relative humidity for two weeks (X-ray diffraction); type: physicochemical; details: two weeks at relative humidity of between 40-80%
# Description: Pravastatin sodium Form G may be prepared by storing pravastatin sodium Form F for 2 weeks at a relative humidity of about 40 to about 80%. […] The resulting solid was analyzed by X-ray diffraction without further treatment.
# [4] = Solid-form stability on drying under vacuum (X-ray diffraction); type: physicochemical
# Description: Most of these forms have a jelly appearance. By drying these samples at 60° C., vacuum overnight, the powdered Form D is obtained.
# Pravastatin sodium (7 g) was dissolved in deionized water (13 ml) and diluted with acetone (14.3 ml). The resulting solution was stirred over charcoal (0.07 g.) to decolorize. The charcoal was removed by filtration and rinsed with a 10:1 mixture of acetone:water (15.7 ml). The combined pravastatin sodium solution and rinsate was then diluted with acetone (42.8 ml) and cooled to −10° C. At the reduced temperature, more acetone (143 ml) was slowly added over one half hour. The solution was then maintained at −10° C. for three hours during which time pravastatin sodium crystallized. The crystals were then isolated by filtration, washed with 1% water in acetone that had been pre-cooled to −10° C. (28 ml) and then again with anhydrous acetone (28 ml). The crystals were then dried under vacuum at 50° C. […]
# Pravastatin crystals were filtered and washed with 160 L acetone containing 2% water and cooled to between 2-5° C. Then the wet cake was washed once more with 160 L of pure acetone. The product was dried under vacuum by gradual heating to 60° C. The crystals were identified by X-ray diffraction as Form L. The water content was 16.8% and the acetone content was 0%. After prolonged drying the water content was reduced to 10.7%. A mixture of Form L and D was identified.
smiles,measurement,setting,value
"CC[C@H](C)C(=O)O[C@H]1C[C@H](O)C=C2C=C[C@H](C)C(CC[C@@H](O)C[C@@H](O)CC(=O)O)[C@H]21 (relative stereo) [Pravastatin sodium, [1S-[1α(β*,δ*)2α,6α,8β(R*),8aα]]-1,2,6,7,8,8a-hexahydro-β,δ,6-trihydroxy-2-methyl-8-(2-methyl-1-oxobutoxy)-1-naphthalene-heptanoic acid]",crystal form after exposure at 100% relative humidity,[1],found to be Form C
same,effect on serum cholesterol levels,[2],reduction in serum cholesterol levels
"CC[C@H](C)C(=O)O[C@H]1C[C@H](O)C=C2C=C[C@H](C)[C@H](CC[C@@H](O)C[C@@H](O)CC(=O)O)[C@H]21 [Form F, pravastatin sodium]",crystal form after storage at humidity,[3],Form G is obtained
"CC[C@H](C)C(=O)O[C@H]1C[C@H](O)C=C2C=C[C@H](C)[C@H](CC[C@@H](O)C[C@@H](O)CC(=O)O)[C@H]21 [Form H, pravastatin sodium]",crystal form after drying under vacuum overnight,[4],converted to Form D
"CC[C@H](C)C(=O)O[C@H]1C[C@H](O)C=C2C=C[C@H](C)[C@H](CC[C@@H](O)C[C@@H](O)CC(=O)O)[C@H]21 [Form I, pravastatin sodium]",crystal form after drying under vacuum overnight,[4],transformed to Form D
"CC[C@H](C)C(=O)O[C@H]1C[C@H](O)C=C2C=C[C@H](C)[C@H](CC[C@@H](O)C[C@@H](O)CC(=O)O)[C@H]21 [Form J, pravastatin sodium]",crystal form after drying under vacuum overnight,[4],transformed to Form D
"CC[C@H](C)C(=O)O[C@H]1C[C@H](O)C=C2C=C[C@H](C)C(CC[C@@H](O)C[C@@H](O)CC(=O)O)[C@H]21 (some centres unmarked) [Form L, pravastatin sodium]",crystal form after drying under vacuum at 50° C.,[4]; dried under vacuum at 50° C. (Example 6),after drying the crystals were Form D
same,crystal form after further drying under vacuum,"[4]; vacuum, gradual heating to 60° C., further drying to 2.5% water content (Example 23)",transformed to pure Form D
